Measurements from US9682931B2, “Aryloyl(oxy or amino)pentafluorosulfanylbenzene compound, pharmaceutically acceptable salt thereof, and prodrugs thereof” (UBE INDUSTRIES, LTD., priority 2013, dated 2017).
Values after ≈ are worked out from the molar mass of the structure shown.

Tested on: Hep G2 (liver cancer)
Experiment: Evaluation of anticancer action, cell proliferation inhibition (WST-8), Hep G2
Type: cell-based
Settings: Homo sapiens, HepG2, Hep G2, about 72 hours
Excerpt: The cell proliferation inhibitory effects of a test substance (Compound 3) on various types of cancer cells were examined.
1. Measuring Reagent and Analysis Software
WST-8 Kit (Cat. No. 260-96165 or 260-96162; manufactured by Kishida Chemical Co., Ltd.) for counting cell number
Software for graph making and measurement of GI50 value: XLfit 5.2 (ID Business Solutions Ltd.)
2. Cells and Culture Conditions
Five types of cells and medium (the following Table) were used. The cells were obtained from the Research Resource Bank of the Human Sciences Foundation.
On the day when a sample was to be added, the sample was weighed and a medium for each type of cells was added so as to be 500 μg/mL. Sonication was performed while warming at 37° C. for 60 minutes to be dissolved. Then, filtration was performed by a 0.22 m-filter. The 500 μg/mL-solution was diluted with the medium for each type of cells to prepare 200 μg/mL, 60 μg/mL, 20 μg/mL, 6 μg/mL, 2 μg/mL, 0.6 μg/mL and 0.2 μg/mL solutions, which were specified as two-fold concentration test solutions (the final concentrations of the test substance were 250 µg/mL, 100 μg/mL, 30 μg/mL, 10 μg/mL, 3 μg/mL, 1 μg/mL, 0.3 μg/mL, […], respectively). […]
(8) Absorbance values at 450 nm and 650 nm were measured to calculate O.D. 450 and O.D. 650. […]
ODdrug-exposed wells: absorbance of a well containing a sample […]

For `O=C(Nc1ccc(S(F)(F)(F)(F)F)cc1)c1cc(O)c(O)c(O)c1` [Compound 3, 4-(3,4,5-trihydroxybenzoylamino)pentafluorosulfanylbenzene], the GI50 was 9.8 µg/mL (≈ 26.4 µM).
